Measurements taken from article PMC4585835 (Scientific Reports, 2015).
Where a SMILES comes first, the peptide text is derived from it. [ ]: non-standard residue; d: D form. The star is where a group is joined. Stearoyl = CCCCCCCCCCCCCCCCCC(=O)*

Columns and labels:
trypsin = target: T1, trypsin (Bos taurus, UniProt P00760); test: Degradation mediated by trypsin (HPLC); format: in vitro ADME; conditions: trypsin (119 ng/μL) in Tris-HCl buffer, pH 8.5, 119 μg/ml trypsin, peptide 0.79 mM, 37 °C, read-out: peptide intact after incubation with trypsin
T1 construct: purchased Roche Corp (Indianapolis, USA)
T1 sequence (P00760 24-246): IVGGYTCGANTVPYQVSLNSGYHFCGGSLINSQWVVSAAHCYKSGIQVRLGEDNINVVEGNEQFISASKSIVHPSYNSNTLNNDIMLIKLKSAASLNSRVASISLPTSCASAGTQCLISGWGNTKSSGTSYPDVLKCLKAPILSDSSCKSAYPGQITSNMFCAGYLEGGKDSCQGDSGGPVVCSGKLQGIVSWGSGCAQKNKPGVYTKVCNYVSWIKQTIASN
Text: The degradation of peptides mediated by trypsin can be effectively monitored by HPLC analysis. […] The detector wavelength was set at 214 nm.

human thrombin = target: T2, human thrombin (Homo sapiens, UniProt P00734); test: Degradation mediated by human thrombin (HPLC); format: in vitro ADME; conditions: human thrombin (69 NIH/mL) in Tris-HCl buffer, pH 8, 69 NIH/ml human thrombin, peptide 0.41 mM, 37 °C, read-out: peptide remained after reaction with human thrombin
T2 construct: purchased National Institute for the Control of Pharmaceutical and Biological Products (Beijing, China)
Procedure: The catalytic cleavage of peptides mediated by thrombin was also examined using the same method. Specifically, a peptide solution (0.41 mM) was first incubated with thrombin (69 NIH/mL) in Tris-HCl buffer (70 mM Tris HCl, NaCl 50 mM, pH = 8.0) at 37 °C.

[1] = system: rat carotid artery thrombosis; test: Rat carotid artery thrombosis (occlusion time); format: in vivo; conditions: for occlusion time (OT): 30 min after administration
Text: The carotid artery thrombosis in rats was induced by the method developed by Hladovec with minor modifications. At first, male SD Rats (180 ~ 220 g) were randomly divided into 5 groups (n = 8) and anesthetized by i.p. 20% ethyl urethane (1 g/kg). The right carotid artery was first carefully separated to give a 1.5 cm long open access, and then the stimulating electrode and the temperature electrode of BT 87–3 thrombosis radiometer (Baotou medical college, China) were linked to both ends of the artery. […] The time from the initiation of electric stimulation to the sudden drop of carotid temperature was recorded as occlusion time (OT), or thrombus formation time.

rat thrombin = target: T3, rat thrombin (Rattus norvegicus, UniProt P18292); test: Inhibition of rat thrombin-catalyzed hydrolysis of Chromozym TH; format: biochemical; conditions: 25 °C, pH 7.4
T3 construct: purchased Sigma

[2] = target: T4, human serum albumin (HSA) (Homo sapiens, UniProt P02768); test: Intrinsic HSA fluorescence quenching; format: binding; conditions: HSA 5 μM, pH 7.4, 25 °C
T4 construct: purchased Calbiochem (Merck, Germany)
Procedure: Fluorescence measurements were conducted on a Hitachi F-4500 spectrofluorometer with a slit width of 5 nm (excitation) and 5 nm (emission). All measurements were performed at 25 °C in a 1 cm path length quartz cell. Samples were excited at 280 nm and the fluorescence intensity was measured between 300–400 nm. Human serum albumin (5 μM) was dissolved in 10 mM HEPES/100 mM NaCl solution (pH 7.4), and then titrated with the stock solution of peptides prepared in the same buffer. The background fluorescence spectra were recorded and subtracted from the ones collected from the peptide-containing samples.

[3] = Bleeding time test (BT) in rats; format: in vivo, rat; conditions: for increase on the bleeding time compared with the saline group: 30 min; for bleeding time (BT): 30 min after administration
Procedure: Bleeding time was determined as reported previously. Male SD rats (180–220 g) were divided into 6 groups (n = 8). […] Thirty minutes after the injection, bleeding was induced by tail transection of the anesthetized rat with a size 21 disposable scalpel blade 2 mm from the tail tip. The bleeding tail was wiped with filter paper every 30 s, and the bleeding time was recorded when no blood was observed on the filter paper.

rat plasma = test: TT, PT and APTT of rat blood after administration; format: in vivo
Procedure: Forty-eight male SD rats (180 ~ 220 g) were randomly divided into six groups (n = 8) and anesthetized by i.p.20% ethyl urethane (1 g·kg^−1). […] Blood samples were obtained from the abdominal aorta, and then mixed with 3.8% sodium citrate solution in a ratio of 9:1 (v/v). The resulting samples were centrifuged at 3000 rpm for 15 min at 18 °C. TT, PT and APTT were determined according to the kit protocol (Sunbio Ltd., Shanghai) on a C2000 coagulometer (Precil, Beijing).

[4] = target: T4, human serum albumin (HSA); test: Surface plasmon resonance on surface-immobilized HSA; format: binding; conditions: HBS-EP buffer, 0.1-10 μM peptide
Procedure: Briefly, HSA was first immobilized on CM5 sensor chips using the standard amine coupling protocol provided by manufacturer. The carboxymethylated dextran surface was then activated by injecting 45 μL of the solution containing 0.2 M N-ethyl-N’-(3-dimethylaminopropyl) carbodiimide hydrochloride and 0.05 M N-hydroxy succinimide. Subsequently, HSA and the control antibody were dissolved in 10 mM Na-citrate solution (pH 5.0, 50 μg/ml) and then injected until the desired amount of HSA and control antibody were coupled (8000 RUs). At this point, a buffer with higher ionic strength (HBS-EP, 0.01 M Hepes, pH = 7.4, 0.15 M NaCl, 3 mM EDTA, 0.005% surfactant) was used to wash off the ligands bound non-covalently. Finally, the 1 M ethanolamine hydrochloride solution (pH 8.5) was employed to cap the free NHS esters present on the sensor surface. […] All samples were injected onto the surface of HSA and control antibody over 3 minutes at a flow rate of 30 μL/min, followed by a dissociation period of 15 min. The 2.5 μM sample was subject to this protocol twice. Sensorgrams were obtained for each peptide concentration, respectively.

IVC thrombosis = test: Inferior vena cava (IVC) thrombosis in rats; format: in vivo, rat
Procedure: Specifically, a laparotomy with ligation of the IVC below the renal veins and all visible side branches was first performed. 20 min or 5 hours after the administration of peptide or saline, the thrombosis in the IVC was carefully dissected and weighted after removing blood residual.

T4 sequence (P02768 25-609): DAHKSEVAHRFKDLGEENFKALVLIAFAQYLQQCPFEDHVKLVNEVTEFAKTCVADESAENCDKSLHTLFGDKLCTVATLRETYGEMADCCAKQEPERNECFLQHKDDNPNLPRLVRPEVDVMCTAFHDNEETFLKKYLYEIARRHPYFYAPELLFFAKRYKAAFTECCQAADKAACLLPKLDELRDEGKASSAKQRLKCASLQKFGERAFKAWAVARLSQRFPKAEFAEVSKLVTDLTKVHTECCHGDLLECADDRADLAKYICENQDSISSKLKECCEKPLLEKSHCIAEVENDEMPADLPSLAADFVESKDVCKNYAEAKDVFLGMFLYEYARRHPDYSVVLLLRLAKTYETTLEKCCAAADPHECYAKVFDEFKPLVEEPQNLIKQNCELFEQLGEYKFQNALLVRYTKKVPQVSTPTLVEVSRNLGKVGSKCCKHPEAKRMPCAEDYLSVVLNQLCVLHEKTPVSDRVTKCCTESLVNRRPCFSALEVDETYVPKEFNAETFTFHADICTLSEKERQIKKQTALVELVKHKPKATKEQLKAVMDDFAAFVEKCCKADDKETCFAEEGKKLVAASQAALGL

SMILES: CCCCCCCCCCCCCCCCCC(=O)NCCCC[C@H](NC(=O)CNC(=O)[C@@H]1CCCN1C(=O)[C@H](CCCNC(=N)N)NC(=O)[C@@H]1CCCN1C(=O)[C@H](N)Cc1ccccc1)C(=O)NCC(=O)NCC(=O)N[C@@H](CCC(N)=O)C(=O)NCC(=O)N[C@@H](CC(=O)O)C(=O)N[C@@H](Cc1ccccc1)C(=O)N[C@@H](CCC(=O)O)C(=O)N1CCC[C@H]1C(=O)N[C@H](C(=O)N1CCC[C@H]1C(=O)N[C@@H](CCC(=O)O)C(=O)N[C@@H](CC(=O)O)C(=O)N[C@@H](C)C(=O)N[C@@H](Cc1ccc(O)cc1)C(=O)N[C@@H](CC(=O)O)C(=O)N[C@@H](CCC(=O)O)C(N)=O)[C@@H](C)CC [Peptide S2] (H-[dF]PRPGK(Stearoyl)GGQGDFEPIPEDAYDE-NH2; N-terminus assumed)
- remaining at 3 h, 0.79 mM (trypsin; 3 h): 39%
- remaining at 5 h, 0.79 mM (trypsin; 5 h): 23%
- remaining at 3 h, 0.41 mM (human thrombin; 3 h): 93%
- remaining at 5 h, 0.41 mM (human thrombin; 5 h): 69%
- occlusion time (OT) ([1]; 0.5 mg/kg): 979.88 ± 150.61 s
- occlusion time (OT) ([1]; 1.0 mg/kg): 1063.75 ± 61.12 s
- duration of antithrombotic activity (OT) ([1]; 1.0 mg/kg, OT at different time points): more than 8 h
- occlusion time (OT) ([1]; 2.0 mg/kg): 1207.25 ± 137.82
- Ki (rat thrombin): 15.2 ± 0.18 nM
- binding to HSA by intrinsic fluorescence quenching [2]: dose-dependent fluorescence quenching within the range of 2.5 ~ 16 μM
- increase on the bleeding time compared with the saline group ([3]; 0.5 mg/kg): 29.03%
- bleeding time (BT) ([3]; 0.5 mg/kg): 300.00 ± 35.86 s
- increase on the bleeding time compared with the saline group ([3]; 1.0 mg/kg): 122.58%
- bleeding time (BT) ([3]; 1.0 mg/kg): 517.50 ± 38.45 s
- increase on the bleeding time compared with the saline group ([3]; 2.0 mg/kg): 174.19%
- bleeding time (BT) ([3]; 2.0 mg/kg): 637.50 ± 74.79 s
- antithrombotic activity (TT, PT, APTT) compared with references (rat plasma; 0.5 mg/kg peptide S2, 30 min after administration): superior to the 8 mg/kg hirulog-1 and 200 IU/kg heparin
- TT, PT and APTT of rat blood (rat plasma; 30 min after administration, sublingual vein): significantly elevate
- binding to surface-immobilized HSA (SPR) [4]: weakly bind to HSA
- Weight of wet thrombosis (IVC thrombosis; 0.27 mg/kg (0.1 μmol/kg), 300 min after administration): 1.7 ± 0.2 mg
- Weight of wet thrombosis (IVC thrombosis; 0.81 mg/kg (0.3 μmol/kg), 300 min after administration): 0 mg
- Weight of wet thrombosis (IVC thrombosis; 1.61 mg/kg (0.6 μmol/kg), 300 min after administration): 0 mg
- Weight of wet thrombosis (IVC thrombosis; 2.69 mg/kg (1.0 μmol/kg), 20 min after administration): 1.3 ± 1.8 mg
- Weight of wet thrombosis (IVC thrombosis; 2.69 mg/kg (1.0 μmol/kg), 300 min after administration): 0 mg
